In PMC12816392, “Salmonella relies on siderophore exploitation at low pH” (microLife, 2026) one finds Kd data, which are given here for one molecule.

The assay concerns the target FoxA (Salmonella enterica, UniProt E1W8M5). Kind of assay: […]-DFOE radioligand binding to whole Salmonella cells expressing FoxA, at […]-4 °C with CCCP, filtration and scintillation counting; pH […] and […]. Format: cell-based.

Chain of FoxA (E1W8M5 31-702): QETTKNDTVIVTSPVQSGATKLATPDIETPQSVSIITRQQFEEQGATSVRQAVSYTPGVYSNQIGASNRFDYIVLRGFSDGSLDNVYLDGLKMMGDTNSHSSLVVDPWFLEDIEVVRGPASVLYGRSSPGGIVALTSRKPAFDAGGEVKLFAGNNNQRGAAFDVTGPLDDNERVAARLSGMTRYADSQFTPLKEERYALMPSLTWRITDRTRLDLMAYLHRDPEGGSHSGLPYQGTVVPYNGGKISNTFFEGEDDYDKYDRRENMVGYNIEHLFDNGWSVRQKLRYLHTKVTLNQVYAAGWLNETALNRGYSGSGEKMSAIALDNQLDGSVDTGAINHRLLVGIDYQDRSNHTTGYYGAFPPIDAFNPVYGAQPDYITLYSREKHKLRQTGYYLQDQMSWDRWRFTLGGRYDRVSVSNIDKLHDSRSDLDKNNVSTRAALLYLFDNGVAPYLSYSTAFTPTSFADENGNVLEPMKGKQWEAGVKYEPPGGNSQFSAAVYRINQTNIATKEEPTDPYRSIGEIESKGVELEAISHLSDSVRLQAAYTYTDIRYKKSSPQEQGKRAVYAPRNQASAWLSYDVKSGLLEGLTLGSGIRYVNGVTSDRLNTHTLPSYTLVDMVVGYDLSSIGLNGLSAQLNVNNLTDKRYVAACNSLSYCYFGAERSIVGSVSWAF

On to `O=C1CCC(=O)N(O)CCCCCNC(=O)CCC(=O)N(O)CCCCCNC(=O)CCC(=O)N(O)CCCCCN1` [DFOE, ferrioxamine E], for which the Kd (as a rule, the free concentration of one partner at which half of the binding sites on the other are occupied at equilibrium, for simple one-to-one binding) was ~3.2 nM.
